The source of these data is PubChem BioAssay (NCI).

Some test systems named below: HS 578T breast; MDA-MB-231 breast; MOLT-4 leukemia; SK-MEL-5 melanoma; NCI-H460 lung; NCI-H522 lung; NCI/ADR-RES ovarian; A498 renal; SNB-75 CNS; OVCAR-4 ovarian.
What all share (assay): NCI-60 cell line screen, 48 h

Molecules are shown by their SMILES. Values joined by “and” are separate entries in the source; they are usually repeats but may differ in a detail not shown here. Equal entries are not always repeated.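 Exposure lasted 48 hours, with cells grown in 96-well plates and compounds tested at five concentrations. GI50 = concentration required for 50% inhibition of growth. At the TGI there is no net growth.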

With `CCC(C)[C@H](NC(=O)NC(=O)NC(=O)CI)C(=O)OC` (stereo not given in full), the GI50 is 23.5 µM in the assay with HS 578T breast; 13.6 µM with MDA-MB-231 breast; 2.47 µM in the assay with MOLT-4 leukemia; 16.7 µM with SK-MEL-5 melanoma; 17.4 µM in the assay with NCI-H460 lung; 1.51 µM with NCI-H522 lung. Besides, the GI50 is 21.2 µM with NCI/ADR-RES ovarian, 16.2 µM in the assay with A498 renal, 10.3 µM in the assay with SNB-75 CNS and 2.48 µM in the assay with OVCAR-4 ovarian. In addition, the TGI in the assay on HS 578T breast turned out to be 73.5 µM; with MDA-MB-231 breast it was 30.7 µM; in the assay with MOLT-4 leukemia it was 6.74 µM; with SK-MEL-5 melanoma, 30.5 µM; in the assay with NCI-H460 lung it was 39.4 µM; in the assay on NCI-H522 lung it was 3.01 µM. Also, the TGI in the assay on NCI/ADR-RES ovarian amounted to 60 µM; in the assay on A498 renal it was 30.5 µM; with SNB-75 CNS, 26.1 µM; in the assay with OVCAR-4 ovarian it was 8.68 µM.
As for `COc1ccc(CNC(C)C(=O)O)cc1` (stereo not given), the TGI with HS 578T breast, in the assay with MDA-MB-231 breast, in the assay on MOLT-4 leukemia, in the assay with SK-MEL-5 melanoma, with NCI-H460 lung and in the assay with NCI-H522 lung was more than 100 µM throughout. The TGI in the assay on NCI/ADR-RES ovarian, in the assay on A498 renal, in the assay on SNB-75 CNS and in the assay with OVCAR-4 ovarian was more than 100 µM in each case.
`Cc1cc2nc3ccc(=[N+](C)C)cc-3sc2cc1N`: the GI50 in the assay with HS 578T breast was 1.49 µM and 0.311 µM; in the assay on MDA-MB-231 breast, 0.739 µM and 0.284 µM; in the assay with MOLT-4 leukemia, 0.237 µM and 0.363 µM; in the assay with SK-MEL-5 melanoma, 0.145 µM and 0.284 µM; in the assay on NCI-H460 lung, 0.457 µM and 1.56 µM; with NCI-H522 lung, 0.274 µM and 1.57 µM. Also, the GI50 in the assay on NCI/ADR-RES ovarian was 0.272 µM and 0.265 µM; in the assay on A498 renal it was 1.33 µM and 1.93 µM; with SNB-75 CNS it was 1.43 µM and 1.34 µM; in the assay on OVCAR-4 ovarian, 0.21 µM and 0.146 µM. Further, the TGI in the assay on MDA-MB-231 breast is 7.51 µM and 7.94 µM and 1.33 µM; with SK-MEL-5 melanoma it was 0.324 µM and 1.81 µM and 1.33 µM; in the assay with NCI-H460 lung, 7.56 µM and 24.5 µM and 11.8 µM; in the assay on NCI-H522 lung, 1.66 µM and 8.94 µM and 10.3 µM; in the assay on NCI/ADR-RES ovarian, 3.61 µM and 7.98 µM and 1.49 µM; with A498 renal, 14.2 µM and 47.2 µM and 12 µM. Further, in the assay on SNB-75 CNS, the TGI was 4.03 µM and 24.5 µM and 3.37 µM.
With `NC(=S)N/N=C/c1ccc(N)cn1`, the TGI is more than 10 µM in the assay with HS 578T breast; more than 10 µM in the assay on MDA-MB-231 breast; more than 10 µM in the assay on MOLT-4 leukemia; more than 6.95 µM in the assay with SK-MEL-5 melanoma; more than 10 µM with NCI-H460 lung; more than 10 µM with NCI-H522 lung. The TGI in the assay on NCI/ADR-RES ovarian, in the assay on A498 renal, with SNB-75 CNS and in the assay with OVCAR-4 ovarian was more than 10 µM each time.
For the compound `CCCC[n+]1c(/C=C\c2c(OC)cc(OC)cc2OC)ccc2ccccc21`, the GI50 is 1.28 µM in the assay with HS 578T breast; 1.42 µM in the assay with MDA-MB-231 breast; 1.64 µM in the assay with MOLT-4 leukemia; 0.299 µM in the assay on SK-MEL-5 melanoma; 0.574 µM with NCI-H460 lung; 0.678 µM in the assay on NCI-H522 lung. Besides, the GI50 in the assay on NCI/ADR-RES ovarian is 15.9 µM; with A498 renal, 0.157 µM; in the assay on SNB-75 CNS it was 1.57 µM; with OVCAR-4 ovarian, 1.68 µM. Also, the TGI in the assay on HS 578T breast worked out at 8.64 µM; in the assay with MDA-MB-231 breast, 4.62 µM; in the assay on MOLT-4 leukemia, 8.92 µM; with SK-MEL-5 melanoma, 1.29 µM; with NCI-H460 lung, 2.83 µM; in the assay with NCI-H522 lung, 3.07 µM. Further, the TGI with NCI/ADR-RES ovarian is more than 71.9 µM; in the assay with A498 renal it was 2.87 µM; in the assay with SNB-75 CNS, 8.21 µM; in the assay with OVCAR-4 ovarian, 13.6 µM.
For the compound `Cc1cccc2nc3cccc(C(=O)NCCNCCNCCNC(=O)c4cccc5nc6cccc(C)c6nc45)c3nc12`, the GI50 with HS 578T breast was 0.0474 µM; with MDA-MB-231 breast, 0.161 µM; in the assay with MOLT-4 leukemia, less than 0.01 µM; in the assay with SK-MEL-5 melanoma it was less than 0.0131 µM; in the assay with NCI-H460 lung, less than 0.01 µM; with NCI-H522 lung, less than 0.01 µM. For the same compound, the GI50 in the assay with NCI/ADR-RES ovarian was 0.296 µM; with A498 renal, less than 0.01 µM; with SNB-75 CNS, 0.181 µM; in the assay with OVCAR-4 ovarian, 0.168 µM. Also, the TGI in the assay with HS 578T breast was 2.24 µM; in the assay with MDA-MB-231 breast it was 3.93 µM; with MOLT-4 leukemia, 14.7 µM; in the assay on SK-MEL-5 melanoma, 0.851 µM; in the assay with NCI-H460 lung, 0.19 µM; in the assay on NCI-H522 lung it was 0.159 µM. Also, the TGI is more than 100 µM in the assay with NCI/ADR-RES ovarian, 0.363 µM in the assay on A498 renal, 1.44 µM with SNB-75 CNS and 5.09 µM in the assay with OVCAR-4 ovarian.
With `c1ccc(Nc2nc(-c3ccccn3)cs2)nc1`, the GI50 is 2.91 µM in the assay with HS 578T breast; 0.934 µM in the assay on MDA-MB-231 breast; 0.301 µM with MOLT-4 leukemia; 0.355 µM in the assay with SK-MEL-5 melanoma; 0.29 µM with NCI-H460 lung; 0.253 µM in the assay on NCI-H522 lung. Also, the GI50 in the assay on NCI/ADR-RES ovarian is 0.103 µM; with A498 renal, 0.266 µM; with SNB-75 CNS, 3.03 µM; in the assay on OVCAR-4 ovarian, 0.593 µM. The TGI in the assay on HS 578T breast is more than 100 µM; in the assay on MDA-MB-231 breast, more than 100 µM; in the assay on MOLT-4 leukemia, more than 27.2 µM; with SK-MEL-5 melanoma, 6.17 µM; in the assay on NCI-H460 lung, 2.61 µM; with NCI-H522 lung it was 15.1 µM. The TGI is 2.89 µM with NCI/ADR-RES ovarian, 13.5 µM with A498 renal, more than 100 µM in the assay with SNB-75 CNS and more than 100 µM with OVCAR-4 ovarian.
As to `COc1ccc2c(Cc3c4ccccc4cc4ccccc34)cncc2c1O`, the TGI in the assay with HS 578T breast was more than 100 µM; in the assay with MDA-MB-231 breast it was 8.95 µM; in the assay with MOLT-4 leukemia, 8.82 µM; in the assay with SK-MEL-5 melanoma it was 3.05 µM; in the assay on NCI-H460 lung, 3.94 µM; with NCI-H522 lung it was 21.2 µM. Besides, the TGI is 9.17 µM in the assay with NCI/ADR-RES ovarian, 23.9 µM with A498 renal, 29.4 µM in the assay with SNB-75 CNS and more than 74.2 µM in the assay on OVCAR-4 ovarian.
Turning to `c1ccc(CN2CCC3(CC2)SSC2(CCN(Cc4ccccc4)CC2)SS3)cc1`, the TGI in the assay with HS 578T breast, with MDA-MB-231 breast, with MOLT-4 leukemia, in the assay with SK-MEL-5 melanoma, in the assay with NCI-H460 lung and in the assay with NCI-H522 lung was more than 100 µM throughout. Also, the TGI with NCI/ADR-RES ovarian, with A498 renal, in the assay with SNB-75 CNS and in the assay on OVCAR-4 ovarian was more than 100 µM in each case.
Take `C/C(=N\NC(=S)N1CCN(C2CCCCCC2)CC1)c1ccccn1`: the TGI with HS 578T breast is 4.63 µM; in the assay with MDA-MB-231 breast, 2.85 µM; in the assay on MOLT-4 leukemia, 1.52 µM and 3.72 µM; in the assay with SK-MEL-5 melanoma, 8.38 µM and 1.01 µM; with NCI-H460 lung it was 1.45 µM; in the assay on NCI-H522 lung it was 0.12 µM and 0.267 µM. Further, the TGI with NCI/ADR-RES ovarian was 0.676 µM; with A498 renal it was 3.76 µM; with SNB-75 CNS, 5.09 µM; in the assay with OVCAR-4 ovarian it was 3.12 µM. For the same compound, the results for the GI50 with MOLT-4 leukemia, in the assay with SK-MEL-5 melanoma and in the assay with NCI-H522 lung were less than 0.001 µM, 0.0204 µM and less than 0.001 µM, respectively.
As to `CC[C@@H](C(=O)[C@H](C)[C@H](O)[C@@H](C)[C@H]1O[C@H]([C@@H](CC)C(=O)O)CC[C@H]1C)C1O[C@]2(C=C[C@@H](O)[C@]3(CC[C@@](C)([C@H]4CC[C@](O)(CC)[C@H](C)O4)O3)O2)[C@H](C)C[C@@H]1C` (stereo not given in full), the GI50 is 0.239 µM in the assay with HS 578T breast; 0.586 µM in the assay on MDA-MB-231 breast; 1.26 µM with MOLT-4 leukemia; 0.102 µM with SK-MEL-5 melanoma; 0.4 µM with NCI-H460 lung; 0.0961 µM in the assay with NCI-H522 lung. The GI50 in the assay with NCI/ADR-RES ovarian was 0.562 µM; in the assay with A498 renal it was 0.044 µM; in the assay on SNB-75 CNS, 0.777 µM; with OVCAR-4 ovarian, 0.821 µM. The TGI in the assay on HS 578T breast was determined as 18.4 µM; with MDA-MB-231 breast it was 6.71 µM; with MOLT-4 leukemia, 4.75 µM; in the assay on SK-MEL-5 melanoma, 0.274 µM; in the assay on NCI-H460 lung, 10.3 µM; with NCI-H522 lung, 2.51 µM. Besides, the TGI with NCI/ADR-RES ovarian is more than 68.2 µM; in the assay with A498 renal, 0.48 µM; in the assay with SNB-75 CNS, 4.63 µM; in the assay with OVCAR-4 ovarian it was 44.8 µM.
As for `COc1cccc(-n2cc(-c3nc(Nc4cc(C)[nH]n4)c4ccccc4n3)nn2)c1`, the GI50 in the assay with HS 578T breast is 2.6 µM; in the assay on MDA-MB-231 breast it was 3.02 µM; in the assay on MOLT-4 leukemia, 2.01 µM; in the assay with SK-MEL-5 melanoma, 1.07 µM; in the assay on NCI-H460 lung, 2.65 µM; in the assay on NCI-H522 lung, 3.38 µM. For the same compound, the GI50 was 0.234 µM with NCI/ADR-RES ovarian, 0.291 µM in the assay with A498 renal, 1.15 µM with SNB-75 CNS and 2.24 µM in the assay on OVCAR-4 ovarian. The TGI amounted to 16.5 µM with HS 578T breast; 15.6 µM in the assay on MDA-MB-231 breast; 9.8 µM in the assay with MOLT-4 leukemia; 4.06 µM in the assay on SK-MEL-5 melanoma; 11.3 µM in the assay on NCI-H460 lung; 10.2 µM in the assay on NCI-H522 lung. Also, the TGI in the assay with NCI/ADR-RES ovarian was 12.5 µM; in the assay with A498 renal, 7.08 µM; in the assay on SNB-75 CNS it was 7.9 µM; in the assay on OVCAR-4 ovarian, 9.57 µM.
In the case of `CC(C)=CCC1=C(OCC(=O)O)C(=O)c2ccccc2C1=O`, the TGI with HS 578T breast was 62.6 µM; in the assay with MDA-MB-231 breast it was more than 100 µM; with MOLT-4 leukemia, more than 100 µM; in the assay on SK-MEL-5 melanoma, 41.4 µM; in the assay with NCI-H460 lung it was more than 100 µM; with NCI-H522 lung, 57.4 µM. Besides, the TGI with NCI/ADR-RES ovarian is more than 100 µM; in the assay on A498 renal, more than 100 µM; with SNB-75 CNS, 64.7 µM; in the assay on OVCAR-4 ovarian it was 99.1 µM.
